US12121521B2, “Uses of salt-inducible kinase (SIK) inhibitors for treating osteoporosis” (The General Hospital Corporation, priority 2016, dated 2024)

Assays:
Ocy454 cells = assay: Gene expression in Ocy454 cells by RT-qPCR; format: cell-based, mouse; details: 0.5 μM, 3.5 hours; FIG. 21
Procedure: In FIG. 21, Ocy454 cells (osteocyte cell line, also known at 6-9 cells) were cultured at 37° C. for 2 weeks to permit osteocyte differentiation. The cells were then treated with the indicated compound (0.5 μM) for 3.5 hours, and gene expression was analyzed by RT-qPCR. SOST expression was reduced by the indicated compounds. RANKL expression was increased by the indicated compounds. […] Therefore, these changes in gene expression may be due to on-target effects of the indicated compound.
For all experiments, a single cell subclone of Ocy454 cells (17, 18) was used. Cells were passages in alpha-MEM supplemented with 10% heat-inactivated fetal bovine serum and 1% antibiotics (penicillin/streptomycin, Fungizone) at 33° C. with 5% CO2. Cells were plated at 50,000 cells/ml and allowed to reach confluency at 33° C. (typically in 2-3 days). At this point, cells were transferred to 37° C. for subsequent analysis. For immunoblotting, cells were always analyzed after culture at 37° C. for 7 days. For gene expression analysis, cells were analyzed after culture at 37° C. for 14 days. Mycoplasma contamination was ruled out by PCR. Cells were routinely assayed for SOST expression at 37° C. and examined for osteocytic morphology.
Total RNA was extracted from cultured cells using RNeasy (Qiagen, Venlo, Netherlands) following the manufacturer's instructions. For long bone RNA isolation, mice were sacrificed and both femurs were rapidly dissected on ice. Soft tissue was removed and epiphyses cut. Bone marrow cells were then removed by serial flushing with ice-cold PBS. TRIzol (Life Technologies) was added and sampled were frozen at −80C and then homogenized. RNA was then extracted per the manufacturer's instructions, and further purified on RNeasy microcolumns prior to cDNA synthesis. RNA with A260/280 ratio <1.7 was not used for downstream analysis. For cDNA synthesis, 1 μg RNA was used in synthesis reactions according to the instructions of the manufacturer (Primescript RT, Takara). SYBR Green-based qPCR detection was performed using FastStart Universal SYBR Green (Roche, Basel, Switzerland) on a StepOne Plus (Applied Biosystems, Carlsbad, CA) thermocycler.

male C57B/6 mice = assay: YKL-05-099 dose range once daily for two weeks: histomorphometry; format: in vivo, mouse; details: 18 mg/kg once daily
Procedure: Right tibia from 8-week-old mice were subjected to bone histomorphometric analysis. The mice were injected 20 mg/kg body weight of calcein and 40 mg/kg body weight of demeclocycline on 7 and 2 days before necropsy, respectively. The tibia was dissected and fixed in 70% ethanol for 3 days. Fixed bones were dehydrated in graded ethanol, then infiltrated and embedded in methylmethacrylate without demineralization. Undecalcified 4-μm-thick longitudinal sections were obtained using microtome (RM2255, Leica Biosystems., IL, USA). Sections were left unstained for dynamic parameters measurement, and consecutive sections were stained with tartrate-resistant acid phosphatase and counterstained with toluidine blue for measurement of cellular parameters. A standard dynamic bone histomorphometric analysis of the tibial metaphysis was done using the Osteomeasure analyzing system (Osteometrics Inc., Decatur, GA, USA). Measurements were performed in the area of secondary spongiosa, 200 μm below the proximal growth plate. The observer was blinded to the experimental genotype at the time of measurement. The structural, dynamic and cellular parameters were calculated and expressed according to the standardized nomenclature (75).
(§1) Static and dynamic histomorphometry was performed (see FIG. 24). […] Effects on osteoclast differentiation were assessed by TRAP secretion assays and counting multi-nucleated TRAP-positive cells (see FIG. 26). M-CSF signaling in primary macrophages, was assessed by immunoblotting for MCSF-receptor Y723 phosphorylation and ERK1/2 phosphorylation (see FIG. 27).

[1] = test system: M-CSF+RANKL-primed osteoclastogenesis; assay: Osteoclast differentiation of bone marrow-derived macrophages (TRAP); format: cell-based, murine; details: in vitro; read-out: IC50 of inhibition of M-CSF+RANKL-primed osteoclastogenesis
Procedure: as §1

male mice = assay: Acute YKL-05-099 administration: bone gene expression; format: in vivo, mouse; details: single I.P. dose 20 μmol/kg, 2 hours
Procedure: Whole cell extracts were generated, followed by immunoblotting. […] RNA was prepared, and gene expression analyzed by RT-qPCR. […] 2 hours later, animals were sacrificed, RNA was prepared from femurs, and gene expression analyzed by RT-qPCR. […] Animals were sacrificed 2 hours after the final dose, and RNA from femurs analyzed for the indicated genes. BGLAP encodes osteocalcin. * indicated p<0.01 versus vehicle, # indicates p<0.05 versus vehicle. (FIGS. 8E to 8K), static and dynamic histomorphometry were performed on the tibia from the same mice as in FIG. 8D. Each data point represents an individual mouse, p values for each difference are shown on the graph. (FIG. 8L) Representative photomicrograph showing increased osteoblasts on cancellous bone surfaces from YKL-05-099-treated mice.
All animals were housed in the Center for Comparative Medicine at the Massachusetts General Hospital, and all experiments were approved by the hospital's Subcommittee on Research Animal Care. HDAC5-null mice (70) and HDAC4 f/f mice (71) were generously provided by Dr. Eric Olson (University of Texas Southwestern Medical Center, Dallas, TX) and were backcrossed to C57B/6 mice for at least 6 generations. […] In all instances, skeletal phenotypes were evaluated in 8 week-old sex-matched littermates. […]

SMILES | RANKL expression (Ocy454 cells) | SOST expression (Ocy454 cells) | Ob.S/BS (male C57B/6 mice; p<0.01 vs vehicle) | trabecular bone volume (male C57B/6 mice; p<0.01 vs vehicle, in % (unit assumed)) | Oc.S/BS (male C57B/6 mice; p<0.05 vs vehicle) | IC50 [1] | RANKL in bone RNA (male mice) | SOST in bone RNA (male mice)
COc1ccc(N2C(=O)N(c3c(C)cccc3C)Cc3cnc(Nc4ccc(C5CCN(C)CC5)c(OC)c4)nc32)c(OC)c1 [YKL-05-093] | most active in these experiments at reducing SOST and increasing RANKL | most active in these experiments at reducing SOST |  |  |  |  |  | 
COc1ccc(N2C(=O)N(c3c(C)cccc3Cl)Cc3cnc(Nc4ccc(C5CCN(C)CC5)cc4OC)nc32)nc1 [YKL-05-099] |  |  | 16.8±1.3 | 16.3±2.0 | 1.59±0.4 | 0.052 µM | RANKL up-regulation | SOST down-regulation
